Earlier results, collected in patent publication US8188047B2, “Therapeutic and cosmetic compositions for treatment of skin” (priority 2009, dated 2012).

Conditions: typically

stable up to (temperature): up to 400 °C
SMILES: FC1(F)C(F)(F)C(F)(F)C2(F)C(F)(F)C(F)(F)C(F)(F)C(F)(F)C2(F)C1(F)F (stereo not shown) [perfluorodecalin]
